Measured values from patent US20050080055A1, “Method of treating breast cancer with androgen receptor antagonists” (priority 2003, published 2005).

What was measured:
Test in all cases: Sulforhodamine B (SRB) cytotoxicity assay
Type in all cases: cell-based
DU 145 = details: Homo sapiens
Method: (§1) PPC-1, LNCaP, TSU, PC-3, and DU145 were grown in PRMI-1640 medium containing 2 mM L-glutamine supplemented with 10% fetal bovine serum (FBS). Cells were maintained in a 5% CO2/95% air humidified atmosphere at 37° C.
(§2) The SRB Assay was used to determine cell number during cytotoxocity experiments. The following protocol was used: • 1. Cells were detached with 0.25% trypsin. • 2. Experimental cultures were cultured in 96-well microtiter plates (200 uL growth medium per well; 1,000-200,000 cells per well). • 3. Cultures were fixed with 50 uL 50% TCA (4° C.). (see cell fixation protocol for details). • 4. Fixed cells were stained with 50 uL 0.4% (wt/vol) SRB in 1% acetic acid for 10 minutes. • 5. SRB was removed and the cultures were quickly* rinsed 5 times with 1% acetic acid to remove unbound dye.** * quickly performing rinsing process is to prevent desorption of protein-bound SRB ** completely remove residual wash solution by sharply flicking plates over sink. • 6. Cultures were air-dried overnight until there is no visible moisture. • 7. The cellular protein-bound SRB was dissolved with 200 uL unbuffered Tris base (10 mM, pH 10.5) for 30 minutes on a rocking platform shaker. • 8. Absorbance was read at 540 nm. Fixation of Cells Attached to the Plastic Substratum
(§3) The following protocol was used for fixing cells: • a. 50 uL of 50% TCA (4° C.) were gently layered on the top of growth medium in each well to make a final TCA concentration of 10%. • b. Cultures were incubated at 4° C. for 1 hour. • c. Cultures were washed 5 times with tap water to remove TCA, growth medium, low-molecular-weight metabolites, and serum protein. • d. Plates were air-dried until there was no visible moisture.
(§4) The IC50s of I-31, I-29, S-NTBA and Compound V in different prostate cancer cell lines (DU 145, PC-3, TSU, PPC-l and LNCaP), in a breast cancer cell line (MCF-7), in other cancer cell lines ([…]) and in a control cell line (CV-1) after 1 and 4 days of incubation with the drug, are shown in Tables 2A and B.

LNCaP = details: Homo sapiens
Method: as §1, §2, §3, §4

PC-3 = details: Homo sapiens
Method: as §1, §2, §3, §4

PPC-1 = details: Homo sapiens
Method: as §1, §2, §3, §4

TSU = details: Homo sapiens, 96 h; drug incubation time 4 days
Method: as §1, §2, §3, §4

HT-29 = details: Homo sapiens
TCCSUP = details: Homo sapiens, TCC-SUP
MCF-7 = details: Homo sapiens
Method: as §2
The following protocol was used for fixing cells: • a. 50 uL of 50% TCA (4° C.) were gently layered on the top of growth medium in each well to make a final TCA concentration of 10%. • b. Cultures were incubated at 4° C. for 1 hour. • c. […]

[1] = 24 h, drug incubation time 1 day
[2] = 96 h, drug incubation time 4 days

With C[C@@](O)(CBr)C(=O)Nc1ccc([N+](=O)[O-])c(C(F)(F)F)c1 [S-NTBA] the IC50 (DU 145; DU-145, 24 h, drug incubation time 1 day) was 5.5 ± 0.6 µM, the IC50 (DU 145; DU-145, 96 h, drug incubation time 4 days) was 4.6 µM and the IC50 (LNCaP; [1]) was 1.6 ± 0.5 µM. The IC50 (LNCaP; [2]) was 1.8 µM, the IC50 (PC-3; PC-3, 24 h, drug incubation time 1 day) was 7.9 ± 0.7 µM and the IC50 (PC-3; PC-3, 96 h, drug incubation time 4 days) was 3.7 µM. The IC50 (PPC-1; PPC-1, 24 h, drug incubation time 1 day) was 1.7 ± 0.2 µM, the IC50 (PPC-1; PPC-1, 96 h, drug incubation time 4 days) was 2.7 µM and the IC50 (TSU) was 2.9 µM. For the same molecule, the IC50 (HT-29; HT-29, 24 h, drug incubation time 1 day) was 19.8 ± 1 µM, the IC50 (HT-29; HT-29, 96 h, drug incubation time 4 days) was 10.8 µM and the IC50 (TCCSUP; [1]) was 9.5 ± 3.6 µM. The IC50 (TCCSUP; [2]) was 4.6 µM, the IC50 (MCF-7; MCF7, 24 h, drug incubation time 1 day) was 3.3 ± 0.6 µM and the IC50 (MCF-7; MCF7, 96 h, drug incubation time 4 days) was 3.3 ± 0.6 µM.
